Literature values, collected in US8168224B2, “Sodium alginate microsphere vascular embolus containing water-soluble drug and preparation and application thereof” (Beijing Shengyiyao Science & Technology Development Co., …, priority 2007, dated 2012).

Legend:
[1] = tested on: primary liver cancer; settings: 20 mg/d for 5 consecutive days
[2] = tested on: human ovary cancer cell strain SKOV3; settings: As2O3 within normal clinical dosage range; radiation in routine graded dosages
[3] = tested on: K562 and K562/ADM; settings: dosage-time effect
[4] = tested on: acute non-APL (ANPL); settings: versus Ara-C, Homoharringtonine, VCR and DNR
[5] = tested on: rabbit Vx2 hepatic transplantation carcinoma; settings: hepatic artery catheter perfusion; dose dependent
[6] = tested on: human liver cancer cell strain HepG2; settings: combination with TNF
[7] = tested on: human ovary cancer strain 3AO; settings: 3AO cells in vitro, compared with cisplatin (cDDP)
[8] = tested on: angiogenesis in CAM
[9] = tested on: HUVECs

Arsenic trioxide [As2O3]
side effects ([1]; 4 courses, local pump administration): No explicit side effects
PR (lesions shrank by 50% plus, no new lesions) ([1]; 17 patients unsuitable for surgery, after 4 therapeutic courses): 35.2%
overall effectiveness rate ([1]; 17 patients, after 4 therapeutic courses): 41.1%
radiation enhancement [2]: enhance effect of the radiation therapy
expression of Bcl-2 protein [3]: inhibit expression of Bcl-2 protein of K562 and K562/ADM
cross drug resistance [4]: free from cross drug resistance with Ara-C, Homoharringtonine and VCR, but partly has cross drug resistance with DNR
inhibition of rabbit Vx2 hepatic transplantation carcinoma [5]: significantly effective in treating tumors
combination effect on inducing apoptosis [6]: synergistic
growth inhibition, apoptosis induction and S phase block compared with cDDP [7]: more effective in inhibiting growth, inducing apoptosis and blocking S phase of 3AO
angiogenesis [8]: inhibit angiogenesis
growth of HUVECs [9]: inhibit growth of HUVECs
